Data on nine compounds can be found in ChEMBL document CHEMBL1140135 (J Med Chem, 2008).

One experiment deals with Thymidylate synthase (Homo sapiens, UniProt P04818).
In experiment [1] the target is T1, Bifunctional dihydrofolate reductase-thymidylate synthase (Toxoplasma gondii, UniProt Q07422).
T1 sequence (Q07422 whole entry): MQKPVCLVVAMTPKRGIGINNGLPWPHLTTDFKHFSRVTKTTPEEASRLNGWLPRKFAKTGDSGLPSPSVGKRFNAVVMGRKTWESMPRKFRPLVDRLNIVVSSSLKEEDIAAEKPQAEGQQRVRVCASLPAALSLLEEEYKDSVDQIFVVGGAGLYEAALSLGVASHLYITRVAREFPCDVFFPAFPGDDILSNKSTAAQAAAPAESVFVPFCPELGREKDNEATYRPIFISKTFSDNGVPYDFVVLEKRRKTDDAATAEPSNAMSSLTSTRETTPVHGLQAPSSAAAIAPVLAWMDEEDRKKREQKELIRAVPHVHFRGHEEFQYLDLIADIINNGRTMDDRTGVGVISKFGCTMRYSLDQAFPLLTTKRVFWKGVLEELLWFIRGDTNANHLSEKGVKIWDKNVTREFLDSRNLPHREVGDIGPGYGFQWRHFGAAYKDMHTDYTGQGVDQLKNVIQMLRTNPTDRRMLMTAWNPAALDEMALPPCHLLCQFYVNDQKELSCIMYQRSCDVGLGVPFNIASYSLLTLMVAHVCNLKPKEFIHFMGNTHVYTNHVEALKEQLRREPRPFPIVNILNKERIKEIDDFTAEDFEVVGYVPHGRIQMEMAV
Description: Inhibition of Toxoplasma gondii DHFR

For experiment [2], the target named is T2, Dihydrofolate reductase (Escherichia coli) (UniProt P0ABQ4).
T2 sequence (whole entry): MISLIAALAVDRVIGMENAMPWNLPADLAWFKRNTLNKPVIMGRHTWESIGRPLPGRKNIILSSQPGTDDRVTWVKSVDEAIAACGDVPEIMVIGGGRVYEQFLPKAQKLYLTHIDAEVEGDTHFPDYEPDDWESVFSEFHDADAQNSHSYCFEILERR
In words: Inhibition of Escherichia coli DHFR at >[…] uM.

In experiment [3] the target is T1, Bifunctional dihydrofolate reductase-thymidylate synthase. The source holds these as a separate data set.
Description: Inhibition of Toxoplasma gondii thymidylate synthase
Another experiment addresses T3, Dihydrofolate reductase (Homo sapiens, UniProt P00374).
T3 sequence (P00374 whole entry): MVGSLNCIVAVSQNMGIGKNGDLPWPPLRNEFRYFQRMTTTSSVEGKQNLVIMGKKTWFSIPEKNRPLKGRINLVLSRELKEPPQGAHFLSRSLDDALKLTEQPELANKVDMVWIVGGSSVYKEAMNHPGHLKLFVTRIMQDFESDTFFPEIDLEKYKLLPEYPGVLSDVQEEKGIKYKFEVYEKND

Sequence of Thymidylate synthase (P04818 whole entry): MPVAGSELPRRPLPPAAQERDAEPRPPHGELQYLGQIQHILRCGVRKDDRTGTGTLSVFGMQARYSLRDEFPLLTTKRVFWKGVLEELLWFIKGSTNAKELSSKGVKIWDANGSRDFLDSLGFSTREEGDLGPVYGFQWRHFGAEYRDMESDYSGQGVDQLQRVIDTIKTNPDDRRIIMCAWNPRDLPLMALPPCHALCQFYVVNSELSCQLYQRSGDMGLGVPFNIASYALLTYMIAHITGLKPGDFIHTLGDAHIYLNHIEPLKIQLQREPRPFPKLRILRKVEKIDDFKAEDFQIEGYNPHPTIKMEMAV

Consider `Cc1sc2nc(N)[nH]c(=O)c2c1Sc1ccc(Cl)c(Cl)c1`, for which the IC50 (as a rule, the concentration that gives 50% inhibition) on Thymidylate synthase is 0.11 µM; in experiment [1], 0.028 µM; in experiment [3] it was 1.2 µM. Moreover, in experiment [2], the inhibition (as a rule, the percentage by which the read-out fell short of the control) came out at 0%.

On Dihydrofolate reductase, `Cc1[nH]c2nc(N)[nH]c(=O)c2c1Sc1ccc(C(=O)N[C@@H](CCC(=O)O)C(=O)O)cc1` displayed an IC50 of 2.2 µM.

In the case of `Cc1sc2nc(N)[nH]c(=O)c2c1Sc1ccc([N+](=O)[O-])cc1`, the IC50 at Thymidylate synthase was determined as 0.11 µM.

With `Cc1sc2nc(N)[nH]c(=O)c2c1Sc1ccc2ccccc2c1`, the IC50 against Thymidylate synthase is 0.12 µM; in experiment [1], 0.044 µM; at Dihydrofolate reductase, 2.9 µM; in experiment [3], 1.2 µM.

`Cc1sc2nc(N)[nH]c(=O)c2c1Sc1ccc(Cl)cc1`: the IC50 was 0.26 µM against Thymidylate synthase, 0.031 µM in experiment [1], 1.5 µM against Dihydrofolate reductase and 2.6 µM in experiment [3].

In the case of `Cc1sc2nc(N)[nH]c(=O)c2c1Sc1ccc(F)cc1`, the IC50 against Thymidylate synthase worked out at 1.1 µM; against Dihydrofolate reductase, 2.6 µM.

Regarding `Cc1sc2nc(N)[nH]c(=O)c2c1Sc1ccccc1`, the half-inhibitory concentration (IC50) is 1.2 µM on Thymidylate synthase, 0.12 µM in experiment [1], 3.5 µM against Dihydrofolate reductase and 8.4 µM in experiment [3].

Take `Cc1sc2nc(N)[nH]c(=O)c2c1Sc1cc(Cl)cc(Cl)c1`: the IC50 turned out to be 1 µM on Thymidylate synthase, 0.064 µM in experiment [1], 5.6 µM against Dihydrofolate reductase and 2.3 µM in experiment [3]. Further, the inhibition in experiment [2] was 0%.

As for `Cc1sc2nc(N)[nH]c(=O)c2c1Sc1ccncc1`, the IC50 against Thymidylate synthase turned out to be 0.28 µM; in experiment [1], 0.034 µM; against Dihydrofolate reductase it was 2.5 µM; in experiment [3], 1.4 µM.
